Laboratory results: patent publication US4496591A, “Insecticidal bis-carbamate sulfides” (priority 1981, dated 1985)

Assays:
Assay type in all cases: in vivo
[1] = tested on: Snapbean; assay: Phytotoxicity, snapbean; parameters: key: 0: the compounds had no visible effects on that plant species; settings: scale 0 to 10, eight pounds per acre, approximately two weeks
Procedure: (§1) Several species of the novel compounds were tested for their phytotoxic effects. Two flats of each species of plants to be tested were planted 8-14 days before testing and grown at greenhouse conditions. One flat was sprayed with the chemical to be tested at the rate of eight pounds per acre while the other control flat was sprayed with solvent only. The results of such testing were recorded approximately two weeks after treatment and are reproduced in Table III below.
(§2) Numerical ratings from "0" to "10" are used to designate the degree of activity.

[2] = tested on: flax; assay: Phytotoxicity, flax; parameters: key: 0: the compounds had no visible effects on that plant species; settings: scale 0 to 10, eight pounds per acre, approximately two weeks
Procedure: as §1, §2

[3] = tested on: Cucumber; assay: Phytotoxicity, cucumber; parameters: key: 0: the compounds had no visible effects on that plant species; settings: scale 0 to 10, eight pounds per acre, approximately two weeks
Procedure: as §1, §2

[4] = tested on: Marigold; assay: Phytotoxicity, marigold; parameters: key: 0: the compounds had no visible effects on that plant species; settings: scale 0 to 10, eight pounds per acre, approximately two weeks
Procedure: as §1, §2

[5] = tested on: Sorghum; assay: Phytotoxicity, sorghum; parameters: key: 0: the compounds had no visible effects on that plant species; settings: scale 0 to 10, eight pounds per acre, approximately two weeks
Procedure: as §1, §2

[6] = tested on: Mexican bean beetle (Epilachna varivestis, Muls.) larvae; assay: Mexican bean beetle leaf spray test; parameters: key: A: excellent control; B: partial control; C: no control at 500 ppm; settings: 500 parts per million, fourth instar larvae, three days
Procedure: (§3) Suspensions of the test compounds were prepared by dissolving one gram of compound in 50 milliliters of acetone in which had been dissolved 0.1 gram (10 percent of the weight of compound) of an alkylphenoxy polyethoxyethanol surfactant, as an emulsifying or dispersing agent. The resulting solution was mixed into 150 milliliters of water to give roughly 200 milliliters of a suspension containing the compound in finely divided form. The thus-prepared stock suspension contained 0.5 percent by weight of compound. The concentrations in parts per million by weight employed in the tests described hereinbelow were obtained by appropriate dilutions of the stock suspension with water. The test procedures were as follows:
Fourth instar larvae of the Mexican bean beetle (Epilachna varivestis, Muls.), reared on Tendergreen bean plants at a temperature of 80±5° F. and 50±5° F. percent relative humdity, were the test insects.
The test compounds were formulated by diluting the stock suspension with water to give a suspension containing 500 parts of test compound per million parts of final formulation. Tendergreen bean plants of standard height and age were placed on a revolving turntable and sprayed with 100-110 milliliters of test compound formulation by use of a DeVilbiss spray gun set at 40 psig air pressure. This application, which lasted 25 seconds, was sufficient to wet the plants to run-off. As a control, 100-110 milliliters of a water-acetone-emulsifier solution containing no test compound was also sprayed on infested plants. When dry, the paired leaves were separated and each was placed in a 9 centimeter Petri dish lined with moistened filter paper. Five randomly selected larvae were introduced into each dish, and the dishes were closed. The closed dishes were labeled and held at a temperature of 80±5° F., for three days. Although the larvae could easily consume the leaf within 24 to 48 hours, no more food was added. Larvae which were unable to move the length of the body, even upon stimulation, were considered dead.
(§4) In these tests the pesticidal activity of the compounds at the indicated dosage rate against aphid, Southern Armyworm, Bean Beetle and housefly was rated as follows: […]

[7] = tested on: bean aphid (Aphis fabae Scop.); assay: Bean aphid foliage spray test; parameters: key: A: excellent control; B: partial control; C: no control at 500 ppm; settings: 500 parts per million, 24 hour
Procedure: as §3
Adults and nymphal stages of the bean aphid (Aphis fabae Scop.) reared on potted dwarf nasturtium plants at 68°-70° F. and 50±5 percent relative humidity, constituted the test insects. For testing purposes, the number of aphids per pot were standardized to 100-150 by trimming plants containing excess aphids.
The test compounds were formulated by diluting the stock suspension with water to give a suspension containing 500 parts of test compound per million parts of final formulation.
The potted plants (one pot per compound tested) infested with 100-150 aphids, were placed on a revolving turntable and sprayed with 100-110 milliliters of test compound formulation by use of a DeVilbiss spray gun set at 40 psig. air pressure. This application, which lasted 25 seconds, was sufficient to wet the plants to run-off. As a control, 100-110 milliliters of a water-acetone-emulsifier solution containing no test compound was also sprayed on infested plants. After spraying, the pots were placed on their sides on a sheet of white standard mimeograph paper which had been previously ruled to facilitate counting. Temperature and humidity in the test room during the 24 hour holding period were 68°-70° F. and 50±5 percent, respectively. Aphids which fell onto the paper and were unable to remain standing after being uprighted were considered dead. Aphids remaining on the plants were observed closely for movement and those which were unable to move the length of the body upon stimulation by prodding were considered dead.
as §4

[8] = tested on: root-knot nematode, Meloidogyne incognita var. acrita; assay: Nematocide test; parameters: key: 1: severe galling, equal to untreated plants; 2: moderate galling; 3: light galling; 4: very light galling; 5: no galling, perfect control; settings: 3.33 m.g. per jar, cucumber, approximately 3 weeks
Procedure: The test organism used was the infective migratory larvae of the root-knot nematode, Meloidogyne incognita var. acrita, reared in the greenhouse on roots of cucumber plants. Infected plants were removed from the culture, and the roots were chopped very finely. A small amount of this inoculum was added to a pint jar containing approximately 180 cc. of soil. The jars were capped and incubated for one week at room temperature. During this period eggs of the nematode were hatched, and the larval forms migrated into the soil.
Ten ml. of the test formulation were added to each of the two jars for each dosage tested. Following the addition of chemical, the jars were capped, and the contents thoroughly mixed on a ball mill for […].
The test compounds were formulated by a standard procedure of solution in acetone addition of an emulsifier, and dilution with water. Primary screening tests were conducted at 3.33 m.g. of the test compound per jar.
The jars were left capped at room temperature for a period of 48 hours, and the contents then transferred to 3 inch pots. Subsequently, the pots were seeded to cucumber as an indicator crop and placed in the greenhouse where they were cared for in the normal fashion for approximately 3 weeks.
The cucumber plants were then taken from the pots, the soil removed from the roots, and the amount of galling visually rated.
In the test for activity against nematodes activity was rated as follows: […]

[9] = tested on: house flies (Musca domestica, L.); assay: Fly bait test; parameters: key: A: excellent control; B: partial control; C: no control at 500 ppm; settings: 500 parts per million, sugar bait, twenty-four hours
Procedure: as §3
Four to six day old adult house flies (Musca domestica, L.), reared according to the specifications of the Chemical Specialties Manufacturing Association (Blue Book, McNair-Dorland Co., N.Y. 1954; pages 243-244, 261) under controlled conditions of 80±5° F. and 50±5 percent relative humidity, were the test insects. The flies were immobilized by anesthetizing them with carbon dioxide. Twenty-five immobilized individuals, males and females, were transferred to a cage consisting of a standard food strainer about five inches in diameter which was inverted over a wrapping-paper-covered surface. The test compounds were formulated by diluting the stock suspension with a 10 percent (by weight) sugar solution to give a suspension containing 500 parts of test compound per million parts of final formulation, by weight. Ten milliliters of the test formulation were added to a souffle cup containing a one-inch square of an absorbent cotton pad. This bait cup was introduced and centered on the blotting paper under the food strainer prior to admitting the anesthetized flies. The caged flies were allowed to feed on the bait for twenty-four hours, at a temperature of 80±5° F. and at a relative humidity of 50±5 percent.
as §4

[10] = tested on: southern armyworm (Spodoptera eridania, (Cram.)) larvae; assay: Southern armyworm leaf spray bait test; parameters: key: A: excellent control; B: partial control; C: no control at 500 ppm; settings: 500 parts per million, three days
Procedure: as §3
Larvae of the southern armyworm (Spodoptera eridania, (Cram.)), reared on Tendergreen bean plants at a temperature of 80±5° F. and a reative humidity of 50±5 percent, constituted the test insects.
The test compounds were formulated by diluting the stock suspension with water to give a suspension containing 500 parts of test compound per million parts of final formulation. Potted Tendergreen bean plants of standard height and age were placed on a revolving turntable and sprayed with 100-110 milliliters of test compound formulation by use of a DeVilbiss spray gun set at 40 psig air pressure. This application, which lasted 25 seconds, was sufficient to wet the plants to run-off. As a control, 100-110 milliliters of a water-acetone-emulsifier solution containing no test compound were also sprayed on infested plants. When dry, the paired leaves were separated and each one was placed in a 9 centimeter Petri dish lines with moistened filter paper. Five randomly selected larvae were introduced into each dish and the dishes were closed. The closed dishes were labeled and held at 80°-85° F. for three days. Although the larvae could easily consume the whole leaf within twenty-four hours, no more food was added. Larvae which were unable to move the length of the body, even upon stimulation by prodding, were considered dead.
as §4

[11] = tested on: egg of the Southern armyworm (Spodoptera eridania (Cram.)); assay: Southern armyworm ovicide test; parameters: key: A: excellent control; B: partial control; C: no control at 500 ppm; settings: 500 parts per million, egg dip, four days
Procedure: as §3
The test organism was the egg of the Southern armyworm (Spodoptera eridania (Cram.)) as obtained from adults reared on Tendergreen bean plants at a temperature of 80±5° F. and a relative humidity of 50±5 percent. The eggs were laid on freezer paper (Marlon 717, Copco paper) and then cut into small sections containing one or two egg masses.
The test compounds were formulated by diluting the stock suspension with water to give a suspension containing 500 parts of test compound per million parts of final formulation. The egg masses were then dipped until they were thoroughly wet (5-10 seconds). They were then placed on a paper towel face up and were allowed to dry for 15-30 minutes. The dry eggs were placed in a 15×60 mm petri dish containing a cotton dental wick saturated with a 5 percent sodium chloride solution to maintain a high level of humidity. The closed dishes were labeled and held at a temperature of 80±5° F. for four days. Larvae that emerged from the egg, even if dead at the time of observation, were recorded as hatched.
as §4

Row | Structure (SMILES) | Phytotoxicity rating, Snapbean [1] | Phytotoxicity rating, flax [2] | Phytotoxicity rating, Cucumber [3] | Phytotoxicity rating, Marigold [4] | Phytotoxicity rating, Sorghum [5] | Mexican Bean Beetle, pesticidal activity rating [6] | Aphids, pesticidal activity rating [7] | Root-Knot Nematode, galling rating [8] | Housefly, pesticidal activity rating [9] | Southern Armyworm, pesticidal activity rating [10] | Southern Armyworm (egg), pesticidal activity rating [11]
1 | CSC(C)=NOC(=O)N(C)SN(C)C(=O)Oc1cccc(C(C)=O)c1 [drawing 26] | 0 | 0 | 0 | 0 | 0 |  |  |  |  |  | 
2 | CSC(C)=NOC(=O)N(C)SN(C)C(=O)Oc1cccc(C(C)=O)c1 [Compound 1, S-Methyl-N-[[[N'-[[N"-[(3-acetylphenoxy)carbonyl]-N"-methylaminosulfenyl]]-N'-methylcarbamoyloxy]]]thioacetimidate] |  |  |  |  |  | A | A | 5 | A | A | A
3 | CSC(C)=NOC(=O)N(C)SN(C)C(=O)Oc1ccccc1C(C)=O | 0 | 0 | 0 | 0 | 0 |  |  |  |  |  | 
4 | COc1ccc(C(=O)c2ccccc2)c(OC(=O)N(C)SN(C)C(=O)ON=C(C)SC)c1 [Compound 10] |  |  |  |  |  | A | A | 5 | A | A | A
5 | CSC(C)=NOC(=O)N(C)SN(C)C(=O)Oc1ccc(C(=O)c2ccccc2)cc1 [Compound 6] |  |  |  |  |  | A | A | 4 | A | A | A
6 | CSC(C)=NOC(=O)N(C)SN(C)C(=O)Oc1ccccc1C=O [drawing 25] | 0 | 0 | 0 | 0 | 0 |  |  |  |  |  | 
7 | CSC(C)=NOC(=O)N(C)SN(C)C(=O)Oc1ccccc1C=O [Compound 8] |  |  |  |  |  | A | A | 4 | A | A | B
8 | COc1cc(C=O)ccc1OC(=O)N(C)SN(C)C(=O)ON=C(C)SC [Compound 5] |  |  |  |  |  | A | A | 2 | A | A | B
